Experimental data as given in US20100267561A1, “HERBICIDAL PYRIDAZINONE DERIVATIVES” (priority 2007, published 2010).
Like-named read-outs stand apart in the source and are kept apart here.

How the values were obtained:
Assay in all cases: Test B pre-/postemergence plant response
Type in all cases: in vivo
[1] = system: common (oilseed) sunflower (Helianthus annuus); settings: Preemergence
How it was run: (§1)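 Preemergence and postemergence (plants 2-18 cm, 1- to 4-leaf stage) applications used test chemicals in a non-phytotoxic solvent with surfactant. Plants were held in a greenhouse 13 to 15 days, then rated visually against controls on a 0-100 scale (0 no effect, 100 complete control).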

[2] = system: blackgrass (Alopecurus myosuroides); settings: for pest or weed control at 31 g/ha: 31 g ai/ha; for pest or weed control at 62 g/ha: 62 g ai/ha, 100 complete control
How it was run: as §1

[3] = system: velvetleaf (Abutilon theophrasti); settings: for pest or weed control at 31 g/ha / pest or weed control at 62 g/ha: Abutilon theophrasti, read-out: Plant response rating, Velvetleaf; for pest or weed control at 31 g/ha: 31 g ai/ha; for pest or weed control at 62 g/ha: 62 g ai/ha, 100 complete control
How it was run: as §1

[4] = system: wheat (Triticum aestivum); settings: for plant injury at 31 g/ha / plant injury at 62 g/ha: Triticum aestivum, read-out: Plant response rating, Wheat; for plant injury at 31 g/ha: 31 g ai/ha; for plant injury at 62 g/ha: 62 g ai/ha, 100 complete control
How it was run: as §1

[5] = system: lambsquarters (Chenopodium album); settings: for pest or weed control at 31 g/ha / pest or weed control at 62 g/ha: Chenopodium album, read-out: Plant response rating, Lambsquarters; for pest or weed control at 31 g/ha: 31 g ai/ha; for pest or weed control at 62 g/ha: 62 g ai/ha, 100 complete control
How it was run: as §1

[6] = system: downy bromegrass (Bromus tectorum); settings: for pest or weed control at 31 g/ha: 31 g ai/ha; for pest or weed control at 62 g/ha: 62 g ai/ha, 100 complete control
How it was run: as §1

wild oat (Avena fatua) = settings: for pest or weed control at 31 g/ha / pest or weed control at 62 g/ha: Avena fatua, read-out: Plant response rating, Oat, Wild; for pest or weed control at 31 g/ha: 31 g ai/ha; for pest or weed control at 62 g/ha: 62 g ai/ha, 100 complete control
How it was run: as §1

[7] = 8 g ai/ha, postemergence, 0-100 scale
[8] = Preemergence, 8 g ai/ha, scale 0 to 100 (0 no effect, 100 complete control)
[9] = Preemergence, 16 g ai/ha, scale 0 to 100
[10] = 16 g ai/ha, postemergence, 0-100 scale
[11] = post-emergence, Postemergence, scale 0 to 100
[12] = post-emergence, Postemergence, scale 0 to 100, 0 no effect
[13] = pre-emergence, Preemergence, scale 0 to 100 (0 no effect, 100 complete control)
[14] = pre-emergence, Preemergence, 0 to 100 scale, 0 no effect

SMILES: Cc1cc(-c2ccc(Br)cc2)nn1-c1c(O)cn[nH]c1=O [Compound 78, 4-[3-(4-bromophenyl)-5-methyl-1H-pyrazol-1-yl]-5-hydroxy-3(2H)-pyridazinone]
- pest or weed control at 31 g/ha ([1]; Helianthus annuus, pre-emergence, 31 g ai/ha, scale 0 to 100 (0 no effect, 100 complete control), read-out: Plant response rating, Sunflower): 0%
- pest or weed control at 62 g/ha ([1]; Helianthus annuus, pre-emergence, 62 g ai/ha, 0 to 100 scale, 0 no effect, 100 complete control, read-out: Plant response rating, Sunflower): 0%
- Sunflower plant response rating ([1]; 8 g ai/ha, scale 0 to 100 (0 no effect, 100 complete control)): 0
- Sunflower plant response rating ([1]; 16 g ai/ha, scale 0 to 100): 0
- Blackgrass plant response rating [2, 7]: 70
- pest or weed control at 16 g/ha ([2]; Alopecurus myosuroides, post-emergence, Postemergence, 16 g ai/ha, scale 0 to 100, read-out: Plant response rating, Blackgrass): 95%
- pest or weed control at 31 g/ha ([2]; Alopecurus myosuroides, post-emergence, Postemergence, scale 0 to 100, read-out: Plant response rating, Blackgrass): 100%
- pest or weed control at 62 g/ha ([2]; Alopecurus myosuroides, post-emergence, Postemergence, scale 0 to 100, 0 no effect, read-out: Plant response rating, Blackgrass): 100%
- pest or weed control at 31 g/ha ([2]; Alopecurus myosuroides, pre-emergence, Preemergence, scale 0 to 100 (0 no effect, 100 complete control), read-out: Plant response rating, Blackgrass): 100%
- pest or weed control at 62 g/ha ([2]; Alopecurus myosuroides, pre-emergence, Preemergence, 0 to 100 scale, 0 no effect, read-out: Plant response rating, Blackgrass): 100%
- Blackgrass plant response rating [2, 8]: 70
- Blackgrass plant response rating [2, 9]: 90
- Velvetleaf plant response rating [3, 7]: 0
- Velvetleaf plant response rating [3, 10]: 0
- pest or weed control at 31 g/ha [3, 11]: 0%
- pest or weed control at 62 g/ha [3, 12]: 0%
- pest or weed control at 31 g/ha [3, 13]: 0%
- pest or weed control at 62 g/ha [3, 14]: 0%
- Velvetleaf plant response rating [3, 8]: 0
- Velvetleaf plant response rating [3, 9]: 0
- Wheat plant response rating [4, 7]: 50
- Wheat plant response rating [4, 10]: 85
- Wheat plant response rating [4, 8]: 0
- Wheat plant response rating [4, 9]: 80
- plant injury at 31 g/ha [4, 11]: 98%
- plant injury at 62 g/ha [4, 12]: 100%
- plant injury at 31 g/ha [4, 13]: 90%
- plant injury at 62 g/ha [4, 14]: 95%
- Lambsquarters plant response rating [5, 7]: 0
- Lambsquarters plant response rating [5, 10]: 0
- pest or weed control at 31 g/ha [5, 11]: 0%
- pest or weed control at 62 g/ha [5, 12]: 0%
- pest or weed control at 31 g/ha [5, 13]: 0%
- pest or weed control at 62 g/ha [5, 14]: 0%
- Lambsquarters plant response rating [5, 8]: 0
- Lambsquarters plant response rating [5, 9]: 0
- Bromegrass, Downy plant response rating [6, 7]: 55
- pest or weed control at 16 g/ha ([6]; Bromus tectorum, post-emergence, Postemergence, 16 g ai/ha, scale 0 to 100, read-out: Plant response rating, Bromegrass, Downy): 85%
- pest or weed control at 31 g/ha ([6]; Bromus tectorum, post-emergence, Postemergence, scale 0 to 100, read-out: Plant response rating, Bromegrass, Downy): 95%
- pest or weed control at 62 g/ha ([6]; Bromus tectorum, post-emergence, Postemergence, scale 0 to 100, 0 no effect, read-out: Plant response rating, Bromegrass, Downy): 100%
- pest or weed control at 31 g/ha ([6]; Bromus tectorum, pre-emergence, Preemergence, scale 0 to 100 (0 no effect, 100 complete control), read-out: Plant response rating, Bromegrass, Downy): 80%
- pest or weed control at 62 g/ha ([6]; Bromus tectorum, pre-emergence, Preemergence, 0 to 100 scale, 0 no effect, read-out: Plant response rating, Bromegrass, Downy): 98%
- Bromegrass, Downy plant response rating [6, 8]: 40
- Bromegrass, Downy plant response rating [6, 9]: 60
- Oat, Wild plant response rating (wild oat (Avena fatua); [7]): 98
- Oat, Wild plant response rating (wild oat (Avena fatua); [10]): 100
- pest or weed control at 31 g/ha (wild oat (Avena fatua); [11]): 100%
- pest or weed control at 62 g/ha (wild oat (Avena fatua); [12]): 100%
- pest or weed control at 31 g/ha (wild oat (Avena fatua); [13]): 70%
- pest or weed control at 62 g/ha (wild oat (Avena fatua); [14]): 85%
- Oat, Wild plant response rating (wild oat (Avena fatua); [8]): 30
- Oat, Wild plant response rating (wild oat (Avena fatua); [9]): 40
